From patent US11318190B2, “Methods and compositions for treating liver disease” (UNITED STATES GOVERNMENT AS REPRESENTED BY THE DEPARTMENT …, priority 2017, dated 2022)

Tests used:
[1] = system: dnTGF-βRII mice; test: dnTGF-βRII mice 12 wk (early stage PBC model) treated 1 wk by osmotic minipump; format: in vivo, mouse; conditions: dnTGF-βRII 12 wk
Experimental: Briefly, we used wild-type (WT), dnTGFβRII 12 wk and dnTGFβRII 34 wk mice treated with control or SR antagonist (SCT 5-27) minipump (10 μg/kg/day) for 1 wk. Hepatic damage was shown by H&E. IBDM and cholangiocyte proliferation were measured by immunohistochemistry for CK-19 and Ki67, respectively. Biliary apoptosis was evaluated by TUNEL staining. Senescence was measured in cholangiocytes by immunofluorescence for CCL2 or p16 co-stained with CK-19 (to image bile ducts) and SA-β-Galactosidase activity. Hepatic fibrosis was assessed by qPCR for collagen-1a and α-SMA in total liver, and quantification of Sirius Red staining. Hepatic stellate cell (HSC) activation was evaluated by immunofluorescence (IF) for Syp-9. HSC senescence was evaluated by IF for CCL2 or p16 co-stained with desmin (to visualize HSCs). Secretin levels in serum and bile were measured by EIA. Bile and serum were obtained from human control, early PBC and advanced PBC patients, and secretin was evaluated by EIA.
All animal procedures were performed according to protocols approved by the Baylor Scott & White Health IACUC Committee. Transgenic mice expressing a dominant-negative form of the human transforming growth factor-beta receptor II (dnTGF-βRII) were obtained from Dr. M. Eric Gershwin at UC Davis Health (Sacramento, Calif.), and background-matched wild-type (WT, strain C57BL/6) mice were purchased from Charles River Laboratories (Wilmington, Mass.); the breeding colony is established in our animal facility. Animals were maintained in micro-isolator cages in a temperature-controlled environment with 12/12-hr light/dark cycles and fed ad libitum standard chow with free access to drinking water. Studies were performed in 12 wk-old WT mice, and 12 wk-old (mimic early stage PBC) and 32 wk-old (mimic late stage PBC) female and male dnTGF-βRII mice (25-30 gm) that were treated with either saline, secretin (Sct; 2.5 nmoles/kg body weight per day; Bachem, Torrance, Calif.) or the secretin receptor (SR) antagonist, Sec 5-27 (10 μg/kg body weight per day; Thermo Fisher Scientific, Waltham, Mass.) for 1 wk by intraperitoneally implanted osmotic minipump. Liver tissue samples and blocks (formalin-fixed, paraffin-embedded and OCT-embedded), serum, bile, cholangiocytes, and cholangiocyte supernatants (after incubation at 37° C. for 4 hr) were collected as described.
Hematoxylin and eosin (H&E) staining was performed in formalin-fixed, paraffin-embedded liver sections (4-5 μm, 3 samples from 3 different animals) to determine liver morphology. H&E stained liver sections were evaluated by a board-certified pathologist to assess the degree of lobular damage, hepatic necrosis and portal inflammation. At least 10 different portal areas were evaluated for each parameter. Liver sections were examined in a coded fashion by BX-51 light microscopy (Olympus, Tokyo, Japan) equipped with a camera (See, Mancinelli, R et al., Ischemia reperfusion of the hepatic artery induces the functional damage of large bile ducts by changes in the expression of angiogenic factors. Am J Physiol Gastrointest Liver Physiol 2015; 309:G865-873 (2015); Taffetani S et al., Prolactin stimulates the proliferation of normal female cholangiocytes by differential regulation of Ca2+-dependent PKC isoforms, BMC Physiol 7:6 (2007)).
Serum levels of alkaline phosphatase (ALP) and γ-glutamyltransferase (γGT) are commonly used to diagnose PBC (Heathcote, E J, Management of primary biliary cirrhosis. The American Association for the Study of Liver Diseases practice guidelines, Hepatology 31:1005-1013 (2000)); therefore, were measured serum levels of ALP and γGT in mouse serum samples using the Alkaline Phosphatase Assay Kit and γ-Glutamyltransferase Activity Colorimetric Assay Kit, respectively (Abcam; Cambridge, Mass.).
Early stage PBC is identified by cholangiocyte proliferation, whereas late stage PBC is characterized by ductopenia. […]

[2] = system: large IMCLs; test: Large IMCLs treated with secretin with/without LY2109761, or with TGF-β1 (Example 2); format: cell-based, mouse; conditions: secretin 10 nM, 12 hr
Excerpt: Cholangiocytes were obtained by immunoaffinity separation as described herein above, using a monoclonal antibody (a gift from Dr. R. Faris, Brown University, Providence, R.I.) that is expressed by all intrahepatic cholangiocytes. HSCs from the selected groups of mice were isolated by LCM as described previously in Wu, N et al., The secretin/secretin receptor axis modulates liver fibrosis through changes in transforming growth factor-beta1 biliary secretion in mice, Hepatology (Baltimore, Md.) 64(3):865-879 (2016). Briefly, frozen liver sections (n=3, 10 μm thick) were incubated overnight with an anti-desmin (a marker of stellate cells) antibody. Then, desmin-positive cells were dissected from the slides using a LCM system Leica LMD7000 (Buffalo Grove, Ill.) and were collected before RNA extraction with the Arcturus PicoPure RNA isolation kit (Thermo Fisher Scientific CO, Mountain View, Calif.). The in vitro studies were performed in: (I) immortalized murine cholangiocyte lines derived from large cholangiocytes lining large ducts (IMCLs); and (ii) human hepatic stellate cell lines (HHSteCs; ScienCell Research Laboratories, Carlsbad, Calif.).
WT mice were treated for 1 wk with saline or secretin (Sct; 2.5 nmoles/kg body weight per day) before collecting cholangiocytes, HSCs and cholangiocyte supernatants. The levels of TGF-β1 were measured in short-term (6-hour) cultures of cholangiocytes by ELISA kits. Subsequently, we measured: (i) liver fibrosis by immunofluorescence for Col1a1 in liver sections and real-time PCR for TGF-β1, TFG-β1R, Col1a1, α-SMA and Fn1 in cholangiocytes and HSCs; and (ii) cellular senescence by immunofluorescence in liver sections for p16 and real-time PCR for p16 and p21 in cholangiocytes and HSC.
Biliary supernatants were obtained from normal and BDL WT mice and Sct^−/−, SR^−/− and Sct^−/−/SR^−/− BDL mice as well as normal WT mice treated with saline or secretin. HHSteCs were incubated with the aforementioned biliary supernatants (containing different levels of TGF-β1) for 24 hr (in the absence or presence of LY2109761) before measuring the expression of senescence and fibrosis genes by real-time PCR. Furthermore, HHSteCs were incubated with the supernatant of large IMCLs treated for 0.2% bovine serum albumin (basal) or secretin (10 nM) with/without LY2109761 for 6 hr before measuring the mRNA expression of fibrosis and senescence genes. To provide direct evidence that TGF-β1 directly modulates fibrosis and senescence of IMCLs and HHSteCs, these cells were stimulated with TGF-β1 (10 nM) for 24 hr before measuring the expression of PCNA as well as fibrosis and senescence genes by real-time PCR.

secretin [Sct]
HSC activation (SYP-9 staining) [1]: further enhanced
biliary senescence (p16, p18, p21, CCL2) [1]: further increased
cholangiocyte apoptosis (TUNEL-positive cholangiocytes) [1]: further reduced
liver damage (H&E: portal inflammation, inflammatory infiltration, lobular necrosis) [1]: further increased
Sct, SR, CFTR and AE2 expression ([1]; vs saline treated): further increase
collagen content / deposition (Sirius Red), hepatic fibrosis ([1]; vs saline treated): further enhanced
serum levels of ALP and γGT ([1]; vs saline treated): further increased
intrahepatic bile duct mass (IBDM, CK-19) ([1]; vs saline treated, 1 wk minipump): further increase
secretion of TGF-β1 and expression of fibrosis and senescence genes of large IMCLs [2]: increased
